This note sets out measurements from ChEMBL document CHEMBL1152350, “Identification of compounds exhibiting inhibitory activity toward the Pseudomonas tolaasii toxin tolaasin I using in silico docking calculations, NMR binding assays, and in vitro hemolytic activity assays” (Bioorg Med Chem Lett, 2009).

In experiment [1] the test system is Pseudomonas tolaasii. The experiment is described as follows: Binding affinity to Pseudomonas tolaasii tolaasin 1 at 1 mM by NMR spectroscopy.
In experiment [2] the test system is Pseudomonas tolaasii. Nature of the experiment: Suppression of Pseudomonas tolaasii tolaasin 1-induced hemolysis in rat erythrocytes at 10 to 100 uM. Type of experiment: cell-based.
In experiment [3] the test system is Pseudomonas tolaasii. Nature of the experiment: Suppression of Pseudomonas tolaasii tolaasin 1-induced hemolysis in rat erythrocytes at >1 mM. Type of experiment: cell-based.
In experiment [4] the test system is Pseudomonas tolaasii. Nature of the experiment: Suppression of Pseudomonas tolaasii tolaasin 1-induced hemolysis in rat erythrocytes. Format: cell-based.

Active and inactive are the calls of the source. The calls are words filed in the database; no cut-off is given here.

For the compound `CCCCCCCC/C=C\CCCCCCCC(=O)OC[C@@H](O)[C@@H](O)[C@H](O)[C@@H](O)CO`, in the experiment with Pseudomonas tolaasii [1], the result was Active. This compound also had an Activity in the experiment on Pseudomonas tolaasii [2] of 40%. For the same compound, the result in the experiment with Pseudomonas tolaasii [3] was inactive.
For `Cc1[nH]c(=N)sc1C`, the result in the experiment with Pseudomonas tolaasii [1] and in the experiment on Pseudomonas tolaasii [4] was inactive.
